This note sets out measurements from a melting point compilation (Tetko et al.; mined from patent text by program, amines drawn as free bases though some values may be those of a salt).

The molecule `Cc1cc(-c2ccc(C(F)(F)F)cc2)nc2c(-c3nc(-c4ccc(S(N)(=O)=O)s4)no3)cnn12` came in with a melting point of 276 °C.

For `CSc1noc(C2CC2)c1C(=O)c1ccc(C(F)(F)F)nc1C`, the melting point lay in the range of 103 to 104 °C.

For `CC(=O)NCCC1CCc2ccn3nc(C)cc3c21` (configuration not stated), the melting point fell in the range of 106 to 107 °C.

`Nc1ccc(S(=O)(=O)c2cc(N)cc(Br)n2)cc1`: the melting point fell in the range of 202 to 204 °C.

Molecule `CCOC(=O)N1CCN(c2ccc(C3=NNC(=O)CC3C)cc2Cl)CC1` (configuration not stated) yielded a melting point of 154 to 156 °C.

On to `C=C(c1ccc(N(C(=O)c2c(I)cccc2C(N)=O)C(C)C)c(C)c1)C(F)(F)F`, for which the melting point was 201 to 203 °C.

In turn, `CCCN(CCC)Cc1csc(-c2ncn3c2CN(C)C(=O)c2ccccc2-3)n1` yielded a melting point of 111 to 112 °C.

For the molecule `Cc1ccc(-c2ncc3c(n2)CCCCC3)nc1-c1ccccc1`, the melting point is 151 to 154 °C.

As for `CCOC(=O)CCCNc1cccc(/C=C/c2nc3ccccc3s2)c1`, the melting point fell in the range of 68 to 69 °C.

In the case of `CCN1CC2OC(c3ccccc3)(C1)c1ccccc12` (configuration not stated), the melting point fell in the range of 132 to 134 °C.

The molecule `CC(=O)NC(CSC(c1ccccc1)(c1ccccc1)c1ccccc1)C(=O)NCCSC(=O)C(C)C` (configuration not stated) returned a melting point of 147 to 148 °C.

In turn, `O=C(O)C(=O)c1ccc2c(c1)CCS2` had a melting point of 122 to 123 °C.

With `Cn1c([N+](=O)[O-])cnc1COc1ccc([N+](=O)[O-])cc1Cl`, the melting point was 138 °C.

In turn, `COC(=O)c1ccc(SC(Cn2ccnc2)c2ccccc2C(F)(F)F)cc1` (configuration not stated) gave a melting point of 121 to 126 °C.

Molecule `COC1C2=C3C(=CN1OC)OCCC3CC(CCC#N)C2` (configuration not stated) showed a melting point of 105 to 107 °C.

For the molecule `CC#CCOc1ccc(SC(C(=O)NO)c2ccc(F)cc2)cc1` (configuration not stated), the melting point came out at 91.1 °C.

The molecule `Cc1cc(=O)n2c3c(cc(C(O)(C(F)(F)F)C(F)(F)F)cc13)CCCC2` had a melting point of 169 to 171 °C.

The molecule `OCCCCCCC1CCC2C(C=CC3=CCCc4c3n2c2ccncc42)C1` (configuration not stated) came in with a melting point of 101 to 102 °C.

Consider `CC(Oc1ccc(-c2ccc(-c3c(Cc4ccccc4)oc4ccccc34)cc2)cc1)C(=O)O` (configuration not stated), for which the melting point is 112 to 114 °C.

Turning to `COC(=O)c1cc2c(cc1N)OCO2`, the melting point was in the range of 107 to 108 °C.

`Cc1cc([N+](=O)[O-])c(C)cc1O` registered a melting point of 121 to 123 °C.

As for `CCOc1cc2ncc(C#N)c(Nc3ccc4c(c3)S(=O)(=O)C=C4)c2cc1OCC`, the melting point lay in the range of 155 to 160 °C.

As to `COc1ccc(N(C(=O)CN2C(=O)C(Cc3nn(Cc4ccccc4)c4ccccc34)(OC)C(=O)N(c3cccnc3)c3ccccc32)C(C)C)cc1` (configuration not stated), the melting point is 223 to 224 °C.

`CCOC(=O)c1cc2cc(NC(=O)C[C@H]3O[C@H](c4cccc(OC)c4OC)c4cc(Cl)ccc4N(CC(C)(C)COC(C)=O)C3=O)ccc2[nH]1` had a melting point of 200 to 201 °C.

Consider `CC(CC1CNc2nc(N)nc(O)c2C1)c1ccc(C(=O)N[C@@H](CCC(=O)O)C(=O)O)cc1` (some centres not stated), for which the melting point is > 250 °C.

The molecule `CC(C)(C)OC(=O)C(N)c1nc(-c2ncn3c2C2CCN2C(=O)c2cc(F)ccc2-3)no1` (configuration not stated) had a melting point of 147 to 150 °C.

Consider `CCC(=O)c1ccn(S(=O)(=O)c2ccccc2)c1C`, for which the melting point is 105 to 110 °C.

In turn, `Nc1ccc(N2CCN(CCCC(=O)c3ccc(F)cc3)CC2)nc1N` displayed a melting point of 128 to 130 °C.

`O=C(c1ccccc1C(c1ccc(O)cc1)c1ccc(O)cc1)N1CCN(c2ccccc2Cl)CC1`: the melting point was > 300 °C.

`CCc1cc(Oc2ccc(S(C)(=O)=O)nc2)cc2cc(C3=NCC(CC(=O)O)S3)[nH]c12` (configuration not stated) showed a melting point of 230 to 232 °C.

Regarding `O=C1C=CC2=C(C1)Cc1ccccc1OCO2`, the melting point fell in the range of 93 to 95 °C.

Consider `N#CNC(=NCCO[N+](=O)[O-])c1ccc(N)nc1`, for which the melting point was 108 °C.

With `Nc1c(-c2ccc(-c3nnco3)cc2)nnn1-c1ccc(C(F)(F)F)cc1F`, the melting point lay in the range of 185 to 186 °C.

On to `COC(=O)Cc1c(O)nc(C)nc1O`, for which the melting point is > 200 °C.

`COc1cc(Br)c(C(C)=O)cc1OC(C)C` came in with a melting point of 59 to 59.9 °C.

Molecule `CC(C)(Cc1ccc(F)cc1)NC(=O)c1coc(C2C3CCC(O3)C2Cc2ccccc2CCC(=O)O)n1` (configuration not stated) had a melting point of 68 °C.

The molecule `Cc1ccc(C(=O)CC2CCCN(C)C2)cc1` (configuration not stated) registered a melting point of 70 to 74 °C.

Turning to `O=C(O)CCC1(CCC(=O)O)CCCCC(CCC(=O)O)(CCC(=O)O)C1=O`, the melting point was in the range of 230 to 232 °C.

The molecule `CCCCCCCCCCCCCCc1ccc(CCCCCC)c(O)c1` gave a melting point of 43 to 45 °C.

On to `N[C@H]1CC[C@H](Nc2cc(C(F)(F)F)nc3c(C(F)(F)F)cccc23)CC1`, for which the melting point came out at 173 °C.

`CC(C)(C)[Si](OC1CCC(O)C1COC(c1ccccc1)(c1ccccc1)c1ccccc1)(c1ccccc1)c1ccccc1` (configuration not stated) displayed a melting point of 95.6 to 97 °C.

With `Cc1oc(-c2ccccc2)nc1CCOc1ccc(CNO)cc1`, the melting point lay in the range of 99 to 102 °C.

The molecule `CS(=O)(=O)c1ccc(-c2cnn(-c3ccc(F)cc3)c(=O)c2C#Cc2ccccc2)cc1` registered a melting point of 203 to 204 °C.

Turning to `CCNC(=O)Nc1ccc(C(O)(C(F)(F)F)C(F)(F)F)cc1[N+](=O)[O-]`, the melting point was in the range of 169 to 171 °C.

In turn, `Cn1cncc1C(O)(c1ccc(C#N)cc1)c1ccc2c(c1)c(-c1cccc(Cl)c1)cc(=O)n2C` (configuration not stated) yielded a melting point of 210 °C.

With `O=C(O)c1cc(NCc2ccc(F)cc2)ccc1O`, the melting point was > 210 °C.

In turn, `COC(=O)N1C(=O)C=CC1=O` returned a melting point of 61 to 63 °C.

In the case of `CCc1ccc(CCOc2ccc(CC(N)C(=O)O)cc2)nc1` (configuration not stated), the melting point was 214 to 221 °C.

As to `C=CCN(CC=C)c1nc(NC(=O)OCC)n2oc(=O)nc2n1`, the melting point is 172 to 174 °C.

Molecule `OC1CSC(Oc2ccc(-c3ccnc(F)c3)nc2)C(O)C1O` (configuration not stated) displayed a melting point of 219 °C.

Regarding `CC(=O)C1CNCc2c1[nH]c1cnc3ccccc3c21` (configuration not stated), the melting point lay within 218 to 221 °C.

`CCSC(=N)Nc1ccc2[nH]cc(C3=CCN(C)CC3)c2c1` registered a melting point of 77 to 79 °C.

As to `CC(=Cc1ccc(Oc2cccnc2)cc1)C(=O)O`, the melting point was 191 to 194 °C.

`CCOC(=O)C=CC=Cc1cccc([N+](=O)[O-])c1` came in with a melting point of 100 to 101 °C.

With `COC(=O)c1ccc(Oc2c(-c3ccc(OCc4ccccc4)cc3)c(C(F)(F)F)cc3ccccc23)cc1`, the melting point fell in the range of 131 to 132 °C.

On to `CCCCc1ncc(/C=C(\Cc2cccs2)C(=O)O)n1Cc1ccc(O)c(C)c1`, for which the melting point lay in the range of 150 to 152 °C.

For the molecule `O=C(Nc1c(Cl)cncc1Cl)c1ccc(OC(F)F)c2oc3ccc([N+](=O)[O-])cc3c12`, the melting point was > 270 °C.

In turn, `Cc1cccc(C(O)CNC2=NCCN2)c1` (configuration not stated) came in with a melting point of 121 °C.

`COC(=O)Nc1nc2cc(S(=O)CC3CC3)ccc2[nH]1` (configuration not stated) displayed a melting point of 223 to 224 °C.

Molecule `c1cn(CCCc2ccc(OCc3coc(-c4ccsc4)n3)cc2)cn1` gave a melting point of 102 to 103 °C.

`Cn1nc(-c2cnc(N)nc2-c2ccccc2)ccc1=O` yielded a melting point of 254 to 255 °C.

Take `COc1ccc(Cl)c(Oc2c(Cl)nc(C)nc2NS(=O)(=O)c2ccc(C(C)(C)C)cc2)c1`: the melting point amounted to 182 °C.

In turn, `C=CCSc1nc(N)n(-c2nnc(-c3ccccc3O)s2)n1` showed a melting point of 222 to 223 °C.

As to `O=Cc1cc(-c2ccccc2)no1`, the melting point is 67 to 69 °C.

`CCn1cc(C2(c3ccc(F)c(-c4cccnc4F)c3)N=C(N)N(C)C2=O)cc1C(=O)OC` (configuration not stated) yielded a melting point of 114 to 117 °C.

`COc1cccc(-c2nc(Nc3ccc(Cl)cc3)c3ccccc3n2)n1` yielded a melting point of 157 to 160 °C.

On to `CCOC(=O)c1cn(-c2ccc(C(F)(F)F)cn2)nc1C(C)CC` (configuration not stated), for which the melting point lay in the range of 63 to 64 °C.

Turning to `CC(C)(C#N)c1cc(CCCn2cncn2)cc(C(C)(C)C#N)c1`, the melting point was 102 to 104 °C.

`COc1ccccc1CN=C(Cc1ccccc1)N1CC2C(=O)CCC(c3ccccc3)(c3ccccc3)C2C1` (configuration not stated) registered a melting point of 146 °C.

The molecule `Nc1ccc2ccc(Nc3ccccc3)nc2n1` came in with a melting point of 250 °C.

Consider `CC(=O)NCC1CN(c2cc(F)c(N3CCC(n4ccnn4)C(F)C3)c(F)c2)C(=O)O1` (configuration not stated), for which the melting point is 176 to 178 °C.

`Cc1cc(-c2nc[nH]n2)ccc1-c1cnc2[nH]c(=O)n(CCC3CCOCC3)c2n1` yielded a melting point of 258 to 260 °C.

As to `COc1cc(-c2ccc(Br)cc2)oc1-c1ccc(Br)cc1`, the melting point was 112 to 113 °C.

Molecule `COc1ccc(-c2cc(=O)c3c(O)cc(OC)cc3o2)cc1` yielded a melting point of 174 to 175 °C.

`Cc1ccc(C2C(=O)CCC2=O)c(C)c1` returned a melting point of 198 to 200 °C.

`Clc1cnc(Sc2ccccc2)nc1` came in with a melting point of 47 °C.

`Cn1cc(C(=O)O)c(=O)c2cc3cc(F)c(N4CCNC(c5ccccc5F)C4)cc3nc21` (racemic) returned a melting point of 264 °C.

For the molecule `O=c1nc(-c2nccs2)sc2ccccc12`, the melting point was in the range of 229 to 230 °C.

With `CC(=O)c1cc(-c2ccc(C)cc2)c2c(c1)C(C)(C)CCC2(C)C`, the melting point was found to be 102 °C.

In turn, `CCc1cc2c(s1)-n1c(C)nnc1C(CCCCC(=O)Nc1ccccc1)N=C2c1ccc(Cl)cc1` (configuration not stated) yielded a melting point of 238 to 240 °C.

Turning to `CCOC(=O)c1ccc(NC(=O)CC(C(=O)Nc2ccc(NC(=O)Nc3ccccc3C)cc2)c2ccccc2)cc1` (configuration not stated), the melting point is > 220 °C.

With `CN(C1=CC(=O)c2nccnc2C1=O)c1ccccc1`, the melting point was 207 to 208 °C.

In turn, `O=C(Nc1n[nH]c2cc(Cl)ccc12)c1cccs1` gave a melting point of 215 °C.

`CCOCCn1cc2c(C3C(=O)Nc4ccc(Br)cc43)nc(NCCN(C)C)nc2n1` (configuration not stated) displayed a melting point of 247 to 251 °C.

Consider `COc1ccc(C(=O)Nc2ccccc2)cc1NCc1cccc(O)c1`, for which the melting point lay within 168 to 170 °C.

Regarding `Cc1cc2c(c3ccc(=O)[nH]c13)OC(C(O)CN=[N+]=[N-])C2` (configuration not stated), the melting point is 173 to 175 °C.

Molecule `COCOc1ccc(-c2ccc3c(c2)C(C)(C)CCC3(C)C)cc1-c1ccc(C(=O)O)cc1` displayed a melting point of 137 to 140 °C.

For orientation: melting point means the temperature of the solid-liquid transition.
